Data: ChEMBL document CHEMBL1955827, “Influence of ring size on the cognition-enhancing activity of DM235 and MN19, two potent nootropic drugs” (Bioorg Med Chem Lett, 2012)
Calls of active or inactive are those of the source. No cut-off for these calls is given here.

Assays:
Mus musculus [1] = assay: Nootropic activity against scopolamine-induced amnesia in mouse assessed as increase in latency time to enter dark room at 1 mg/kg, ip administered 20 mins prior to test by passive avoidance test (reference value: 91.7 sec); type: functional; conditions: route intraperitoneal
Mus musculus [2] = assay: Neurotoxicity in mouse assessed as effect on inspection activity at 1 mg/kg, ip by hole-board test; type: toxicity, organism-based; set-up: dose 1 mg/kg, route intraperitoneal; conditions: in vivo
Mus musculus [3] = assay: Neurotoxicity in mouse assessed as effect on motor coordination at 1 mg/kg, ip by rotarod test; type: toxicity, organism-based; set-up: dose 1 mg/kg, route intraperitoneal; conditions: in vivo
Mus musculus [4] = assay: Neurotoxicity in mouse assessed as effect on gross behavior at 1 mg/kg, ip by rota-rod test; type: toxicity, organism-based; set-up: dose 1 mg/kg, route intraperitoneal; conditions: in vivo
Mus musculus [5] = assay: Neurotoxicity in mouse assessed as effect on spontaneous motility at 1 mg/kg, ip by hole-board test; type: toxicity, organism-based; set-up: dose 1 mg/kg, route intraperitoneal; conditions: in vivo
Mus musculus [6] = assay: Nootropic activity against scopolamine-induced amnesia in mouse assessed as increase in latency time to enter dark room at 10 mg/kg, ip administered 20 mins prior to test by passive avoidance test (reference value: 91.7 sec); type: functional; conditions: route intraperitoneal
Mus musculus [7] = assay: Nootropic activity against scopolamine-induced amnesia in mouse assessed as increase in latency period to enter dark room up to 10 mg/kg, ip administered 20 mins prior to test by passive avoidance test (reference value: 91.7 sec); type: functional, organism-based; set-up: dose 10 mg/kg
Mus musculus [8] = assay: Neurotoxicity in mouse assessed as effect on inspection activity at 10 mg/kg, ip by hole-board test; type: toxicity, organism-based; set-up: dose 10 mg/kg, route intraperitoneal; conditions: in vivo
Mus musculus [9] = assay: Neurotoxicity in mouse assessed as effect on gross behaviour at 10 mg/kg, ip by rotarod test; type: toxicity, organism-based; set-up: dose 10 mg/kg, route intraperitoneal; conditions: in vivo
Mus musculus [10] = assay: Neurotoxicity in mouse assessed as effect on motor coordination at 10 mg/kg, ip by rotarod test; type: toxicity, organism-based; set-up: dose 10 mg/kg, route intraperitoneal; conditions: in vivo
Mus musculus [11] = assay: Neurotoxicity in mouse assessed as effect on spontaneous motility at 10 mg/kg, ip by hole-board test; type: toxicity, organism-based; set-up: dose 10 mg/kg, route intraperitoneal; conditions: in vivo
Mus musculus [12] = assay: Neurotoxicity in mouse assessed as effect on motor coordination at 0.001 mg/kg, ip by rotarod test; type: toxicity, organism-based; set-up: dose 0.001 mg/kg, route intraperitoneal; conditions: in vivo
Mus musculus [13] = assay: Neurotoxicity in mouse assessed as effect on gross behaviour at 0.001 mg/kg, ip by rotarod test; type: toxicity, organism-based; set-up: dose 0.001 mg/kg, route intraperitoneal; conditions: in vivo
Mus musculus [14] = assay: Neurotoxicity in mouse assessed as effect on spontaneous motility at 0.001 mg/kg, ip by hole-board test; type: toxicity, organism-based; set-up: dose 0.001 mg/kg, route intraperitoneal; conditions: in vivo
Mus musculus [15] = assay: Neurotoxicity in mouse assessed as effect on inspection activity at 0.001 mg/kg, ip by hole-board test; type: toxicity, organism-based; set-up: dose 0.001 mg/kg, route intraperitoneal; conditions: in vivo
Mus musculus [16] = assay: Nootropic activity against scopolamine-induced amnesia in mouse assessed as increase in latency time to enter dark room at 0.001 mg/kg, ip administered 20 mins prior to test by passive avoidance test (reference value: 91.7 sec); type: functional; conditions: route intraperitoneal
Mus musculus [17] = assay: Neurotoxicity in mouse assessed as effect on gross behavior at 30 mg/kg, ip by rota-rod test; type: toxicity, organism-based; set-up: dose 30 mg/kg, route intraperitoneal; conditions: in vivo
Mus musculus [18] = assay: Neurotoxicity in mouse assessed as effect on spontaneous motility at 30 mg/kg, ip by hole-board test; type: toxicity, organism-based; set-up: dose 30 mg/kg, route intraperitoneal; conditions: in vivo
Mus musculus [19] = assay: Neurotoxicity in mouse assessed as effect on inspection activity at 30 mg/kg, ip by hole-board test; type: toxicity, organism-based; set-up: dose 30 mg/kg, route intraperitoneal; conditions: in vivo
Mus musculus [20] = assay: Neurotoxicity in mouse assessed as effect on motor coordination at 30 mg/kg, ip by rotarod test; type: toxicity, organism-based; set-up: dose 30 mg/kg, route intraperitoneal; conditions: in vivo
Mus musculus [21] = assay: Nootropic activity against scopolamine-induced amnesia in mouse assessed as increase in latency time to enter dark room at 0.1 mg/kg, ip administered 20 mins prior to test by passive avoidance test (reference value: 91.7 sec); type: functional; conditions: route intraperitoneal
Mus musculus [22] = assay: Neurotoxicity in mouse assessed as effect on motor coordination at 0.1 mg/kg, ip by rotarod test; type: toxicity, organism-based; set-up: dose 0.1 mg/kg, route intraperitoneal; conditions: in vivo
Mus musculus [23] = assay: Neurotoxicity in mouse assessed as effect on gross behavior at 0.1 mg/kg, ip by rota-rod test; type: toxicity, organism-based; set-up: dose 0.1 mg/kg, route intraperitoneal; conditions: in vivo
Mus musculus [24] = assay: Neurotoxicity in mouse assessed as effect on spontaneous motility at 0.1 mg/kg, ip by hole-board test; type: toxicity, organism-based; set-up: dose 0.1 mg/kg, route intraperitoneal; conditions: in vivo
Mus musculus [25] = assay: Neurotoxicity in mouse assessed as effect on inspection activity at 0.1 mg/kg, ip by hole-board test; type: toxicity, organism-based; set-up: dose 0.1 mg/kg, route intraperitoneal; conditions: in vivo
Mus musculus [26] = assay: Neurotoxicity in mouse assessed as effect on inspection activity at 0.01 mg/kg, ip by hole-board test; type: toxicity, organism-based; set-up: dose 0.01 mg/kg, route intraperitoneal; conditions: in vivo
Mus musculus [27] = assay: Neurotoxicity in mouse assessed as effect on gross behavior at 0.01 mg/kg, ip by rota-rod test; type: toxicity, organism-based; set-up: dose 0.01 mg/kg, route intraperitoneal; conditions: in vivo
Mus musculus [28] = assay: Neurotoxicity in mouse assessed as effect on spontaneous motility at 0.01 mg/kg, ip by hole-board test; type: toxicity, organism-based; set-up: dose 0.01 mg/kg, route intraperitoneal; conditions: in vivo
Mus musculus [29] = assay: Nootropic activity against scopolamine-induced amnesia in mouse assessed as increase in latency time to enter dark room at 0.01 mg/kg, ip administered 20 mins prior to test by passive avoidance test (reference value: 91.7 sec); type: functional; conditions: route intraperitoneal
Mus musculus [30] = assay: Neurotoxicity in mouse assessed as effect on motor coordination at 0.01 mg/kg, ip by rotarod test; type: toxicity, organism-based; set-up: dose 0.01 mg/kg, route intraperitoneal; conditions: in vivo

## CC(=O)N1CCC(NC(=O)c2ccccc2)C1 (stereo not drawn)
Mus musculus [1]
  Time: 48.1 s
Mus musculus [2]
  Activity: Non-toxic
Mus musculus [3]
  Activity: Non-toxic
Mus musculus [4]
  Activity: Non-toxic
Mus musculus [5]
  Activity: Non-toxic

## CC(=O)NC1CCCN(S(=O)(=O)c2ccc(F)cc2)CCC1
Mus musculus [1]
  Time: 44.8 s
Mus musculus [2]
  Activity: Non-toxic
Mus musculus [3]
  Activity: Non-toxic
Mus musculus [4]
  Activity: Non-toxic
Mus musculus [5]
  Activity: Non-toxic

## CCC(=O)N1CCCC(NS(=O)(=O)c2ccc(F)cc2)CC1 (stereo not drawn)
Mus musculus [6]
  Time: 81.4 s

## CC(=O)N1CCC(NS(=O)(=O)c2ccc(F)cc2)C1 (stereo not drawn)
Mus musculus [7]
  Activity: inactive

## CCC(=O)NC1CN(S(=O)(=O)c2ccc(F)cc2)C1
Mus musculus [8]
  Activity: Non-toxic
Mus musculus [9]
  Activity: Non-toxic
Mus musculus [10]
  Activity: Non-toxic
Mus musculus [6]
  Time: 44.1 s
Mus musculus [11]
  Activity: Non-toxic

## CC(=O)N1CCCC(NS(=O)(=O)c2ccc(F)cc2)CC1 (stereo not drawn)
Mus musculus [1]
  Time: 45.8 s
Mus musculus [2]
  Activity: Non-toxic
Mus musculus [3]
  Activity: Non-toxic
Mus musculus [4]
  Activity: Non-toxic
Mus musculus [5]
  Activity: Non-toxic

## CCC(=O)N1CCN(C(=O)c2ccccc2)CC1 [SUNIFIRAM]
Mus musculus [12]
  Activity: Non-toxic
Mus musculus [13]
  Activity: Non-toxic
Mus musculus [14]
  Activity: Non-toxic
Mus musculus [15]
  Activity: Non-toxic
Mus musculus [16]
  Time: 71 s

## CCC(=O)NC1CCCN(C(=O)c2ccccc2)CC1 (stereo not drawn)
Mus musculus [1]
  Time: 62.7 s
Mus musculus [2]
  Activity: Non-toxic
Mus musculus [3]
  Activity: Non-toxic
Mus musculus [4]
  Activity: Non-toxic
Mus musculus [5]
  Activity: Non-toxic

## CCC(=O)NC1CCCN(S(=O)(=O)c2ccc(F)cc2)CC1 (stereo not drawn)
Mus musculus [8]
  Activity: Non-toxic
Mus musculus [9]
  Activity: Non-toxic
Mus musculus [10]
  Activity: Non-toxic
Mus musculus [6]
  Time: 46.8 s
Mus musculus [11]
  Activity: Non-toxic

## NC(=O)CN1CCCC1=O [PIRACETAM]
Mus musculus [17]
  Activity: Non-toxic
Mus musculus [18]
  Activity: Non-toxic
Mus musculus [19]
  Activity: Non-toxic
Mus musculus [20]
  Activity: Non-toxic

## CCC(=O)NC1CCN(S(=O)(=O)c2ccc(F)cc2)C1 (stereo not drawn)
Mus musculus [21]
  Time: 48.8 s
Mus musculus [22]
  Activity: Non-toxic
Mus musculus [23]
  Activity: Non-toxic
Mus musculus [24]
  Activity: Non-toxic
Mus musculus [25]
  Activity: Non-toxic

## CCC(=O)NC1CN(C(=O)c2ccccc2)C1
Mus musculus [7]
  Activity: inactive

## CC(=O)NC1CCN(S(=O)(=O)c2ccc(F)cc2)CC1 [SAPUNIFIRAM]
Mus musculus [26]
  Activity: Non-toxic
Mus musculus [27]
  Activity: Non-toxic
Mus musculus [28]
  Activity: Non-toxic
Mus musculus [29]
  Time: 76.1 s
Mus musculus [30]
  Activity: Non-toxic

## CC(=O)N1CCCN(C(=O)c2ccccc2)CCC1
Mus musculus [7]
  Activity: inactive

## CCC(=O)N[C@H]1CCN(S(=O)(=O)c2ccc(F)cc2)C1
Mus musculus [1]
  Time: 56.6 s
Mus musculus [2]
  Activity: Non-toxic
Mus musculus [3]
  Activity: Non-toxic
Mus musculus [4]
  Activity: Non-toxic
Mus musculus [5]
  Activity: Non-toxic

## CC(=O)NC1CCN(S(=O)(=O)c2ccc(F)cc2)C1 (stereo not drawn)
Mus musculus [1]
  Time: 51 s
Mus musculus [2]
  Activity: Non-toxic
Mus musculus [3]
  Activity: Non-toxic
Mus musculus [4]
  Activity: Non-toxic
Mus musculus [5]
  Activity: Non-toxic

## CCC(=O)N1CCCN(S(=O)(=O)c2ccc(F)cc2)CCC1
Mus musculus [7]
  Activity: inactive

## CCC(=O)N1CCCC(NC(=O)c2ccccc2)CC1 (stereo not drawn)
Mus musculus [1]
  Time: 69.4 s
Mus musculus [2]
  Activity: Non-toxic
Mus musculus [3]
  Activity: Non-toxic
Mus musculus [4]
  Activity: Non-toxic
Mus musculus [5]
  Activity: Non-toxic

## CCC(=O)N1CCC(NS(=O)(=O)c2ccc(F)cc2)C1 (stereo not drawn)
Mus musculus [7]
  Activity: inactive

## CC(=O)NC1CCCN(C(=O)c2ccccc2)CC1 (stereo not drawn)
Mus musculus [7]
  Activity: inactive

## CC(=O)N1CCCC(NC(=O)c2ccccc2)CC1 (stereo not drawn)
Mus musculus [1]
  Time: 70.4 s
Mus musculus [2]
  Activity: Non-toxic
Mus musculus [3]
  Activity: Non-toxic
Mus musculus [4]
  Activity: Non-toxic
Mus musculus [5]
  Activity: Non-toxic

## CCC(=O)N1CCCN(C(=O)c2ccccc2)CCC1
Mus musculus [7]
  Activity: inactive

## CCC(=O)NC1CCCN(S(=O)(=O)c2ccc(F)cc2)CCC1
Mus musculus [8]
  Activity: Non-toxic
Mus musculus [9]
  Activity: Non-toxic
Mus musculus [10]
  Activity: Non-toxic
Mus musculus [6]
  Time: 72.2 s
Mus musculus [11]
  Activity: Non-toxic

## CC(=O)NC1CCCN(C(=O)c2ccccc2)CCC1
Mus musculus [7]
  Activity: inactive

## CCC(=O)NC1CCN(C(=O)c2ccccc2)C1 (stereo not drawn)
Mus musculus [1]
  Time: 45.4 s
Mus musculus [2]
  Activity: Non-toxic
Mus musculus [3]
  Activity: Non-toxic
Mus musculus [4]
  Activity: Non-toxic
Mus musculus [5]
  Activity: Non-toxic

## CCC(=O)N1CCC(NC(=O)c2ccccc2)C1 (stereo not drawn)
Mus musculus [7]
  Activity: inactive

## CCC(=O)N[C@@H]1CCN(S(=O)(=O)c2ccc(F)cc2)C1
Mus musculus [8]
  Activity: Non-toxic
Mus musculus [9]
  Activity: Non-toxic
Mus musculus [10]
  Activity: Non-toxic
Mus musculus [6]
  Time: 69.4 s
Mus musculus [11]
  Activity: Non-toxic

## CC(=O)N1CCCN(S(=O)(=O)c2ccc(F)cc2)CCC1
Mus musculus [7]
  Activity: inactive

## CC(=O)NC1CCN(C(=O)c2ccccc2)C1 (stereo not drawn)
Mus musculus [8]
  Activity: Non-toxic
Mus musculus [9]
  Activity: Non-toxic
Mus musculus [10]
  Activity: Non-toxic
Mus musculus [6]
  Time: 70.3 s
Mus musculus [11]
  Activity: Non-toxic

## CCC(=O)NC1CCCN(C(=O)c2ccccc2)CCC1
Mus musculus [7]
  Activity: inactive

## CC(=O)NC1CCCN(S(=O)(=O)c2ccc(F)cc2)CC1 (stereo not drawn)
Mus musculus [7]
  Activity: inactive
Mus musculus [1]
  Time: 62.7 s
